Measurements reported in US12648560B2, “Mosquito repellent composition and method for the preparation thereof” (priority 2019, dated 2026).

Legend:
Aedes albopictus = assay: Behavioural (blood-feeding) repellency test on feeders covered with pig intestinal skin; assay type: in vivo
Experimental: Testing was performed as to the activity of the compositions obtained by the method according to the invention on the behaviour of the tiger mosquito, Aedes albopictus.
The behavioural tests were carried out at the Montpellier Vectopôle, which is a research centre that collaborates with the WHO for the evaluation of insecticides in public health.
The tests were carried out on mosquitoes aged 5 to 9 days old after their evolution from pupae to adult.
In preparation for the experiment, the mosquitoes were […] on the day prior thereto, in order to promote their appetite for the test to occur the subsequent day.
Each cup contains a damp cotton. The female mosquitoes were removed from the cage making use of a tube that enables aspiration thereof. They were then introduced into each experiment cup (10 mosquitoes per cup).
The tests were carried out on plexiglass racks serving as supports for glass bells known as feeders. The latter are connected to each other by plastic pipes wherein water circulates at 37° C.
Pig intestinal skin was used to mimic human skin in the experiment. The pieces of intestinal skin are positioned and stretched over the feeders.
The repellent is diluted in ethyl alcohol (aka ethanol or EtOH) and is deposited on the skin using a micropipette and then spread over the entire surface. […] If the composition tested is a mixture of at least two compounds, one of which is PMD, the said composition is diluted in ethanol at a concentration of 0.02036 mg/μL, or else is diluted in ethanol until 0.02036 mg/μL of PMD is obtained.
The feeders are turned over, then 300 μL of sheep blood are placed in each feeder. The cups are inserted under each feeder.
Polystyrene plates are inserted between the lines of repellent so as to avoid possible interactions of odours. The duration of the experiment is one hour. The cups are then placed in a freezer at −20° C. for a period of 40 minutes. After freezing, the contents of one cup are placed between two sheets of paper, with the entirety thereof then being crushed with a plexiglass plate. The counting of the blood-fed (engorged) mosquitoes is done based on the number of red dots on the sheet of paper. The results are expressed as a percentage of repellency (100%-X % of blood-feeding). The percentage of blood-feeding is defined in relation to the EtOH negative control. DEET and commercial cis/trans PMD 75/25 at 200 mg/m^2 were used as positive controls.
The results obtained were statistically analysed using R software (R Development Core Team. R: A language and environment for statistical computing. R Foundation for Statistical Computing, Vienna, Austria. ISBN 3-900051-07-0, 2013) and represent the mean of 16 replicates. The percentage repellency values are presented as the mean±standard deviation. The R software also makes it possible to compare two percentage repellency values by means of calculating the quantity p. This quantity p is a probability.

acetylcholinesterase = settings: enzyme of insects as also of mammals; cited from earlier work

| SMILES | % Repellency (Aedes albopictus; Table 2 series, 200 mg/m^2 in EtOH, 1 h, mean ± SD) [%] | % Repellency (Aedes albopictus; Table 3 series, 200 mg/m^2 in EtOH, 1 h, mean ± SD) [%] | % Repellency (Aedes albopictus; Table 4 series, PMD at 200 mg/m^2 in EtOH, mean ± SD) [%] | % Repellency (Aedes albopictus; Table 5 series, PMD at 200 mg/m^2 in EtOH, mean ± SD) [%] | % Repellency (Aedes albopictus; Table 6 series, PMD at 200 mg/m^2 in EtOH, mean ± SD) [%] | % Repellency (Aedes albopictus; Table 7 series, PMD at 200 mg/m^2 in EtOH, mean ± SD) [%] | ED 50 expressed as concentration (Aedes albopictus; concentration in EtOH tantamount to 200 mg/m^2) [mg/mL] | ED 50 (median effective dose) (Aedes albopictus; repellency, dose on skin surface) [mg/m^2] | acetylcholinesterase inhibition (acetylcholinesterase) | % Repellency (Aedes albopictus; Table 2 series, 110 mg/m^2 in EtOH, 1 h, mean ± SD of 16 replicates) [%] | % Repellency (Aedes albopictus; Table 3 series, 110 mg/m^2 in EtOH, 1 h, mean ± SD) [%] | % Repellency (Aedes albopictus; Table 4 series, 110 mg/m^2 in EtOH, mean ± SD) [%] | % Repellency (Aedes albopictus; Table 5 series, 110 mg/m^2 in EtOH, mean ± SD) [%] | % Repellency (Aedes albopictus; Table 6 series, 110 mg/m^2 in EtOH, mean ± SD) [%] | % Repellency (Aedes albopictus; Table 7 series, 110 mg/m^2 in EtOH, mean ± SD) [%] |
| --- | --- | --- | --- | --- | --- | --- | --- | --- | --- | --- | --- | --- | --- | --- | --- |
| CC1CCC(C(C)(C)O)C(O)C1 (mixture of isomers) [Commercial cis/trans PMD 75/25, p-menthane-3,8-diol] | 51 ± 11 | 55 ± 1 | 31 ± 7 | 36 ± 1 | 48 ± 15 | 52 ± 12 | 20.36 | 200 |  |  |  |  |  |  |  |
| CCN(CC)C(=O)c1cccc(C)c1 [DEET, N,N diethyl-meta-toluamide] |  |  |  |  |  |  |  |  | inhibits | 76 ± 9 | 56 ± 8 | 39 ± 7 | 49 ± 17 | 73 ± 2 | 43 ± 13 |
